Results on 7 molecules are retold here after PubChem BioAssay (NCI).

Some test systems named below: HCT-116 colon; HS 578T breast; LOX IMVI melanoma; CAKI-1 renal; OVCAR-5 ovarian; U251 CNS; HOP-62 NSCLC; NCI/ADR-RES ovarian; SF-268 CNS; SK-OV-3 ovarian.
What all share (experiment): inhibition of tumour cell growth, NCI panel, 48 h

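Dose response: 5 concentrations. Exposure: 48 h. Format: 96-well plates. Endpoint: linear interpolation; highest concentration if not reached. At the GI50, growth is halved. TGI: total growth inhibition.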

With `COc1ccc(S(=O)(=O)Nc2c(/C=C\c3cc(OC)c(OC)c(OC)c3)ccc(OC)c2O)cc1`, the GI50 is 0.032 µM in the experiment on HCT-116 colon; 0.047 µM in the experiment with HS 578T breast; 0.0455 µM in the experiment with LOX IMVI melanoma; 0.0516 µM in the experiment on CAKI-1 renal; 1.02 µM in the experiment on OVCAR-5 ovarian; 0.0374 µM in the experiment on U251 CNS. Further, the results for the GI50 in the experiment with HOP-62 NSCLC, in the experiment on NCI/ADR-RES ovarian and in the experiment on SF-268 CNS were 0.0397 µM, 0.155 µM and 0.0838 µM, respectively. Moreover, the TGI in the experiment with HCT-116 colon was > 100 µM; in the experiment on HS 578T breast, > 100 µM; with LOX IMVI melanoma it was 49.1 µM; in the experiment with CAKI-1 renal it was 79.8 µM; in the experiment with OVCAR-5 ovarian, > 100 µM; in the experiment with U251 CNS, > 100 µM. Besides, the TGI in the experiment with HOP-62 NSCLC is > 100 µM; in the experiment with NCI/ADR-RES ovarian, 0.598 µM; in the experiment on SF-268 CNS it was 91.6 µM.
For the molecule `CC(=O)Nc1cc2cc(NS(=O)(=O)c3ccc(Cl)c(Cl)c3)ccc2oc1=O`, the TGI is 82.2 µM in the experiment with HCT-116 colon; 59.7 µM in the experiment on HS 578T breast; 44.3 µM in the experiment with LOX IMVI melanoma; 56.4 µM in the experiment with CAKI-1 renal; > 100 µM in the experiment with OVCAR-5 ovarian; 45.5 µM with U251 CNS. The TGI was 46.7 µM with HOP-62 NSCLC, > 100 µM in the experiment on NCI/ADR-RES ovarian and 61.7 µM in the experiment with SF-268 CNS.
As to `CCC(C)C1=C(O)[N+]2([O-])Oc3ccc(C4=C(O)C(=O)C(c5ccc(O)cc5)=C(O)C4=O)cc3OC2(C(C)CC)C(=O)N1O` (stereo unspecified), the GI50 with HCT-116 colon was 5.02 µM; in the experiment with HS 578T breast, 7.24 µM; in the experiment with LOX IMVI melanoma, 7.28 µM; with CAKI-1 renal it was 3.77 µM; in the experiment on OVCAR-5 ovarian, > 100 µM; with U251 CNS, 6.25 µM. In addition, the GI50 is 9.94 µM with HOP-62 NSCLC, 7.86 µM in the experiment on NCI/ADR-RES ovarian and 5.83 µM with SF-268 CNS. The TGI is > 100 µM with HCT-116 colon; > 100 µM in the experiment with HS 578T breast; 33.9 µM in the experiment on LOX IMVI melanoma; 30.4 µM with CAKI-1 renal; > 100 µM with OVCAR-5 ovarian; > 100 µM in the experiment with U251 CNS. Further, the TGI in the experiment with HOP-62 NSCLC, with NCI/ADR-RES ovarian and with SF-268 CNS was > 100 µM each time.
As to `COc1cc2ncnc(Nc3ccc(Oc4ccnc(C)c4)c(C)c3)c2cc1NC(=O)CC1CCSS1` (stereo unspecified), the GI50 in the experiment with HS 578T breast was 1.12 µM; with SK-OV-3 ovarian it was 0.854 µM; in the experiment with LOX IMVI melanoma, 2.62 µM; in the experiment on CAKI-1 renal, 1.31 µM; in the experiment on OVCAR-5 ovarian, 1.87 µM; in the experiment with U251 CNS it was 1.15 µM. The GI50 in the experiment with HOP-62 NSCLC is 1.16 µM; in the experiment with NCI/ADR-RES ovarian it was 2.14 µM; in the experiment with SF-268 CNS it was 0.94 µM. The TGI in the experiment with HS 578T breast is 3.21 µM; in the experiment on SK-OV-3 ovarian it was 1.63 µM; in the experiment with LOX IMVI melanoma, > 50 µM; in the experiment with CAKI-1 renal, > 14.5 µM; in the experiment with OVCAR-5 ovarian, > 50 µM; in the experiment with U251 CNS, 2.81 µM. Further, the TGI with HOP-62 NSCLC was 2.91 µM; in the experiment on NCI/ADR-RES ovarian it was > 50 µM; in the experiment with SF-268 CNS it was 2.17 µM.
For `COc1cc(-c2nc3ccccc3o2)cc(CN2CCCCC2)c1O`, the GI50 in the experiment with HCT-116 colon is 4.27 µM; in the experiment with HS 578T breast, 2.37 µM; in the experiment on SK-OV-3 ovarian, 30.2 µM; in the experiment on CAKI-1 renal, 14.3 µM; in the experiment on OVCAR-5 ovarian it was 5.31 µM; in the experiment on U251 CNS it was 1.84 µM. Also, the GI50 was 2.58 µM in the experiment on HOP-62 NSCLC, 5.79 µM in the experiment on NCI/ADR-RES ovarian and 5.12 µM in the experiment on SF-268 CNS. The TGI in the experiment on HCT-116 colon was 35.4 µM; in the experiment on HS 578T breast, 7.44 µM; in the experiment with SK-OV-3 ovarian it was > 74.1 µM; in the experiment with CAKI-1 renal, > 100 µM; with OVCAR-5 ovarian, 20.7 µM; in the experiment with U251 CNS it was 9.54 µM. The TGI in the experiment with HOP-62 NSCLC is 9.96 µM; in the experiment on NCI/ADR-RES ovarian it was 76.4 µM; in the experiment with SF-268 CNS it was > 100 µM.
As to `COc1cc2c(c(OC)c1OC)-c1ccc(SC)c(=O)cc1[C@@H](NC(=O)C(F)(F)F)CC2`, the TGI with HCT-116 colon is 4.42 µM; in the experiment on HS 578T breast, 71.1 µM; in the experiment on LOX IMVI melanoma, > 87.3 µM; in the experiment on CAKI-1 renal, 10.3 µM; in the experiment with OVCAR-5 ovarian, > 100 µM; in the experiment on U251 CNS it was 56.3 µM. The TGI in the experiment on HOP-62 NSCLC was > 100 µM; in the experiment on NCI/ADR-RES ovarian, 79.9 µM; in the experiment on SF-268 CNS it was 63.9 µM.
As to `CN(C)Cc1ccc(NC(=O)c2cncc(C#Cc3cnc(N)c4ncccc34)c2)cc1F`, the GI50 with HCT-116 colon was 1.8 µM; in the experiment with HS 578T breast, 7.85 µM; in the experiment on CAKI-1 renal, 15.8 µM; in the experiment with OVCAR-5 ovarian, 2.08 µM; in the experiment with U251 CNS it was 1.93 µM; in the experiment on HOP-62 NSCLC it was 13.4 µM. Besides, the GI50 was 2.2 µM with NCI/ADR-RES ovarian and 2.25 µM in the experiment with SF-268 CNS. Besides, the TGI with HCT-116 colon turned out to be 3.48 µM; with HS 578T breast it was 27.7 µM; with CAKI-1 renal it was 32.3 µM; with OVCAR-5 ovarian, 3.92 µM; in the experiment on U251 CNS, 3.89 µM; with HOP-62 NSCLC, 42.8 µM. Further, the TGI with NCI/ADR-RES ovarian came out at 4.54 µM; in the experiment on SF-268 CNS it was 4.24 µM.
